Literature values, collected in US20120184504A1, “"The Use of a PAR-1 Antagonist in Combination with a P2Y12 ADP Receptor Antagonist for Inhibition of Thrombosis"” (priority 2009, published 2012).
Read-outs that look alike come from different tables or passages of the source.

What was measured:
[1] = test system: clinical events and bleeding in patients with acute coronary syndromes; details: cited from earlier work
[2] = test system: CFRs (coronary thrombus formation); details: pigs, cited from earlier work
[3] = test system: ischemic events and bleeding in patients; details: two phase 2 trials; cited from earlier work

## CC(=O)Oc1cc2c(s1)CCN(C(C(=O)C1CC1)c1ccccc1F)C2 (stereo not drawn) [prasugrel]
[1]
  remaining prevalence of clinical events: 10%
[1]; prasugrel versus clopidogrel
  incremental reduction in clinical events: 19%

## CC(=O)Oc1ccccc1C(=O)O [aspirin]
[2]; aspirin alone 7 mg/kg
  effect on CFRs: reduced, but did not completely abolish

## COC(=O)[C@H](c1ccccc1Cl)N1CCc2sccc2C1 [clopidogrel]
[2]; clopidogrel alone 5 mg/kg
  effect on CFRs: reduced, but did not completely abolish

## CCOC(=O)N[C@@H]1CC[C@@H]2[C@@H](C1)C[C@H]1C(=O)O[C@H](C)[C@H]1[C@H]2/C=C/c1ccc(-c2cccc(F)c2)cn1 [SCH 530348]
[3]
  bleeding: without an accompanying increase in bleeding
  incidence of ischemic events: strong trends towards reduced incidence of ischemic events
